Test in all cases: in vitro agar dilution test (NCCLS), MIC
Holding throughout (format): cell-based

The subject of one test is E. coli Neumann. Particulars: Escherichia coli, inoculation density 10^4 per inoculation point. The protocol:
(§1) In the in vitro agar dilution test according to the internationally customary test (American National Committee for Clinical Laboratory Standards=NCCLS), activity is found against the germs listed below.
(§2) The minimum inhibitory concentration (MIC) was determined by the agar dilution procedure, using an inoculator and an inoculation density of 10^4 per inoculation point. The MIC is the concentration at which no bacteria colonies grow.

In a further test the test system is Klebs. 57 USA. To be noted: inoculation density 10^4 per inoculation point. The protocol:
as §1, §2

The next test deals with Staph. epid. 25185. Particulars: inoculation density 10^4 per inoculation point. As to the method:
as §1, §2

For the next test, the system named is Serratia 16001. Particulars: inoculation density 10^4 per inoculation point. As to the method:
as §1, §2

In brackets after ≈: the same amount, converted by molar mass.

As to `Cn1c(=NC(N)=O)ccn(C2SC(C(O)C(NC(=O)C(N)CO)C(=O)O)C(O)C2O)c1=O` (stereo not shown) [1 X = NCONH2], the MIC is 32 µg/mL (≈ 67.2 µM) in the test with E. coli Neumann, 4 µg/mL (≈ 8.4 µM) against Klebs. 57 USA and 64 µg/mL (≈ 134 µM) against Staph. epid. 25185.
For `Cn1c(=O)ccn(C2SC(C(O)C(NC(=O)C(N)CO)C(=O)O)C(O)C2O)c1=O` (stereo not shown) [1 X = O], in the test with Serratia 16001, the MIC came out at 128 µg/mL (≈ 295 µM).

Values taken from patent publication US4535083A, “Cleavage products of 4',6'-didesoxy-4'-thio-,6'-amino-hepturonic acid nucleosides” (Bayer Aktiengesellschaft, priority 1982, dated 1985).
